5 compounds from patent US20260083864A1, “CONTRAST AGENTS FOR USE IN DIAGNOSTIC COMPUTED TOMOGRAPHY IMAGING” (Bayer Aktiengesellschaft, priority 2022, published 2026) can be followed below.

The nature of series [1]: Partition coefficient (log P butanol/buffer). Type of series: physicochemical. To be noted: 1-butanol / 50 mM Tris-HCl, pH 7.4, room temperature.
A short description of series [2]: Water solubility in aqueous buffer. The settings on record: aqueous buffer 10 mM Tris-HCl, pH 7.4, 20° C. The protocol: The solid compounds were added stepwise to the buffer solution. More substance is added once all the suspended material is dissolved until an equilibrium between undissolved and dissolved substance is reached. The suspension was mixed using a shaker (Heidolph Reax 2000) and treated 5 min in an ultrasound bath (Bandelin, Sonorex Super RK255H).

Series [3] in a line: Relaxivity measurements at 1.41 T in water. The settings on record: 37° C., normalized to Gd. Type of series: physicochemical. The protocol:
Relaxivity measurements at 1.41 T were performed using a MiniSpec mq60 spectrometer (Bruker Analytik, Karlsruhe, Germany) operating at a resonance frequency of 60 MHz and a temperature of 37° C. The T1 relaxation times were determined using the standard inversion recovery (IR) method with a fixed relaxation delay of at least 5×T1. The variable inversion time (TI) was calculated automatically by the standard software of the MiniSpec mq60 (8 steps). The T2 measurements were performed by using a Carr-Purcell-Meiboom-Gill (CPMG) pulse sequence, applying a relaxation delay of at least 5×T1.
Each relaxivity measurement was performed using three different Gd concentrations (3 concentrations between 0.05 and 2 mM). […] Human plasma preparation: For each experiment fresh blood was taken from a volunteer using 10 mL citrate-tubes (Sarstedt S-Monovette 02.1067.001, 10 mL, Citrate). The 10 mL citrate-tubes were carefully inverted 10 times to mix blood and anticoagulant and centrifuged for 15 min at 1811 g at RT (Eppendorf, Centrifuge 5810R).
(§1) The relaxivities n (where i=1, 2) were calculated based on the measured relaxation rates Ri in water and plasma: […]

A short description of series [4]: Relaxivity measurements at 1.41 T in human plasma. Type of series: physicochemical. The settings on record: 37° C., normalized to Gd. As for the experimental part: The T1 relaxation times were determined using the standard inversion recovery (IR) method with a fixed relaxation delay of at least 5×T1. The variable inversion time (TI) was calculated automatically by the standard software of the MiniSpec mq60 (8 steps). The T2 measurements were performed by using a Carr-Purcell-Meiboom-Gill (CPMG) pulse sequence, applying a relaxation delay of at least 5×T1.
Each relaxivity measurement was performed using three different Gd concentrations (3 concentrations between 0.05 and 2 mM).
as §1

A further series concerns the target T1, OATP1B3 (Homo sapiens, UniProt Q9NPD5).
T1 sequence (Q9NPD5 1-702): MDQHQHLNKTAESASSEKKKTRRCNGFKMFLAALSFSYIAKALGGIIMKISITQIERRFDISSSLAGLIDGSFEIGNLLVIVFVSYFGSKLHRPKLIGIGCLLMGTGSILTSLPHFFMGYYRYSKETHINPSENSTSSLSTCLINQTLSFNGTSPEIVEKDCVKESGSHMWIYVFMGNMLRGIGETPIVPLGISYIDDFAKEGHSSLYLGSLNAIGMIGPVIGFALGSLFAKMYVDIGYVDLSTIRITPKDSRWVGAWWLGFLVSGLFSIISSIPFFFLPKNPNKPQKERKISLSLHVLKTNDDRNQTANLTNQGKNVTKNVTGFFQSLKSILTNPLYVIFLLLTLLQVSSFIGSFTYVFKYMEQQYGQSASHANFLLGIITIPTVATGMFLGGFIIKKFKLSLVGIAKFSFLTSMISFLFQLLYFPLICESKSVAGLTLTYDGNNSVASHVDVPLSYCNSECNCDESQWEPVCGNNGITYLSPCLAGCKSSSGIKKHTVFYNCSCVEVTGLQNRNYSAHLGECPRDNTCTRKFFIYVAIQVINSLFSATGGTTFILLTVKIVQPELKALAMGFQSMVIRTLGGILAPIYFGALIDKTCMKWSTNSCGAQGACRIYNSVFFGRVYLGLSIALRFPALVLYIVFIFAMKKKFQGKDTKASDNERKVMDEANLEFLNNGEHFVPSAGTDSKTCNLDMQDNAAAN
Briefly: Uptake into stable transfected OATP1B3 HEK 293 cells. In kind it is cell-based. The settings on record: for Uptake into OATP1B3-HEK 293 cells: 40 min incubation, relative to RC1 (Gd-EOB-DTPA); for Inhibition Rifampicine: uptake into OATP1B3-HEK 293 cells. The protocol:
(§2) Cryopreserved cells were shortly thawed in water bath and diluted in 10 mL warm culture medium (37° C.). After medium change the cells were grown for 3d in a 25 cm^2 cell culture flask. After 3 to 5d the cells were transferred into 75 cm^2 flasks. […] All test items were prepared in transport buffer at a final concentration of 100 µM from stock solutions (180 to 500 mM concentration). The OATP1B3 HEK 293 cells were incubated with test solutions (test item in transport buffer 500 μL) for 40 min on a thermoshaker without shaking (PHMP, Fa. Grant Bio). Triplicates were performed for each test item. After incubation the cells were washed with 2 mL of cold PBS (+) buffer (Dulbeccos PBS+, Fa. Gibco). […] As a reference standard Gd-EOB-DTPA (gadoxetate) is used in the same well plate.

Series [5] relates to freshly isolated rat hepatocytes. Description: Uptake into freshly isolated rat hepatocytes. The settings on record: for Uptake rat hepatocytes: 100 μmol Gd/L, 10 min, 37° C., relative to RC1 (Gd-EOB-DTPA); for Inhibition Rifampicine: rat hepatocyte uptake, test item and Rifampicine 1:1, each 100 μM.
Another series addresses T2, OATP1B1 (Homo sapiens, UniProt Q9Y6L6).
T2 sequence (Q9Y6L6 1-691): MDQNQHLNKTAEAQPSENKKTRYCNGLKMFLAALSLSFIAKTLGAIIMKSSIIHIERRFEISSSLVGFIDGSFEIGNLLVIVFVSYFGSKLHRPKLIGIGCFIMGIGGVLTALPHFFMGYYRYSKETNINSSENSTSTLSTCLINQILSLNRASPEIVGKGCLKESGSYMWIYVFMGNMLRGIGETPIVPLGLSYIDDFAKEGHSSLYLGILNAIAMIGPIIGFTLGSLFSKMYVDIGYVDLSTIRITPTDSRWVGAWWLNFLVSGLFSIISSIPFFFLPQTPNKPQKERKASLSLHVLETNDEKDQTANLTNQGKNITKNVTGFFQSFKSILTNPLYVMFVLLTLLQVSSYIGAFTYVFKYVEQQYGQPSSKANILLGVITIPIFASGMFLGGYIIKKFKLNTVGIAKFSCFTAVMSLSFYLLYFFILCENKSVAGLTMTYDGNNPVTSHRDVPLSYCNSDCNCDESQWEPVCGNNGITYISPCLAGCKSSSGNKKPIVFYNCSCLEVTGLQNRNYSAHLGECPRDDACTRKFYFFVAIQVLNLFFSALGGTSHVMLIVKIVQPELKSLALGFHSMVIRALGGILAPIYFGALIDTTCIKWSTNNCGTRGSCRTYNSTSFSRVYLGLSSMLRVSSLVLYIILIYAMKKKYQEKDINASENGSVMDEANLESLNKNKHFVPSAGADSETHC
Description: Uptake into stable transfected OATP1B1 HEK 293 cells. Type of series: cell-based. To be noted: for Uptake into OATP1B1-HEK 293 cells: 40 min incubation, relative to RC1 (Gd-EOB-DTPA); for Inhibition Rifampicine: uptake into OATP1B1-HEK 293 cells. The protocol:
as §2, with “M” for “µM”, “OATP1B1” for “OATP1B3”, “L)” for “μL)”

Usually Solubility stands for the concentration that dissolves in the medium under given conditions. Low readings indicate a poorly soluble substance, high ones a readily soluble substance. Turning to `O=C([O-])CN1CCN(C(Cc2ccc(OCC(F)(F)C(F)F)cc2)C(=O)O)CCN(CC(=O)[O-])CCN([C@@H](CO)C(=O)[O-])CC1.[Gd+3]` (mixture of isomers) [Example 33, gadolinium (2S)-2-[4,10-bis(carboxylatomethyl)-7-{1-carboxy-2-[4-(2,2,3,3-tetrafluoropropoxy)phenyl]ethyl}-1,4,7,10-tetraazacyclododecan-1-yl]-3-hydroxypropanoate], the “Log P (partition coefficient butanol/buffer)” value in series [1] is given as −0.55. The Solubility in series [2] was over 29 mM. Moreover, in series [3], the r1 water was 4.2 L/mmol/s. In series [4], this compound registered a r1 human plasma of 11.7 L/mmol/s. On OATP1B3, the “Uptake into OATP1B3-HEK 293 cells” value is 71 % of RC1 and the “Inhibition Rifampicine” value came out at 98 % inhibition. Also, in series [5], the Uptake rat hepatocytes is given as 82 % of RC1 and the “Inhibition Rifampicine” value was 94 % inhibition. In addition, at OATP1B1, the “Uptake into OATP1B1-HEK 293 cells” value was 367 % of RC1 and the “Inhibition Rifampicine” value stood at 88 % inhibition.

Take `CCOCCOCCOc1ccc(C[C@@H](C(=O)O)N2CCN(CC(=O)[O-])CCN(CC(=O)[O-])CCN(CC(=O)[O-])CC2)cc1.[Gd+3]` [Example 3, gadolinium 2,2′,2″-{10-[(1S)-1-carboxy-2-{4-[2-(2-ethoxyethoxy)ethoxy]phenyl}ethyl]-1,4,7,10-tetraazacyclododecane-1,4,7-triyl}triacetate]: the “Log P (partition coefficient butanol/buffer)” value in series [1] is −1.61. Moreover, in series [2], the Solubility is over 331 mM. Also, the r1 water in series [3] came out at 4.3 L/mmol/s. Moreover, the r1 human plasma in series [4] was 6.5 L/mmol/s. On OATP1B3, the “Uptake into OATP1B3-HEK 293 cells” value is 18 % of RC1 and the “Inhibition Rifampicine” value was determined as 89 % inhibition. Besides, in series [5], the Uptake rat hepatocytes is recorded as 47 % of RC1 and the “Inhibition Rifampicine” value came to 96 % inhibition. At OATP1B1, the “Uptake into OATP1B1-HEK 293 cells” value is 63 % of RC1 and the “Inhibition Rifampicine” value is recorded as 29 % inhibition.

As for `CCOCCOCCOCCOc1ccc(CC(C(=O)O)N2CCN(CC(=O)[O-])CCN(CC(=O)[O-])CCN(CC(=O)[O-])CC2)cc1.[Gd+3]` (centres unmarked) [Example 10, gadolinium 2,2′,2″-{10-[1-carboxy-2-(4-{2-[2-(2-ethoxyethoxy)ethoxy]ethoxy}phenyl)ethyl]-1,4,7,10-tetraazacyclododecane-1,4,7-triyl}triacetate], the “Log P (partition coefficient butanol/buffer)” value in series [1] is reported as −1.70. Further, the Solubility in series [2] was over 272 mM. In series [3], this compound came in with a r1 water of 4.5 L/mmol/s. The same compound yielded a r1 human plasma in series [4] of 6.6 L/mmol/s. At OATP1B3, the “Uptake into OATP1B3-HEK 293 cells” value is recorded as 13 % of RC1 and the “Inhibition Rifampicine” value is 95 % inhibition. Also, in series [5], the Uptake rat hepatocytes is on record as 49 % of RC1 and the “Inhibition Rifampicine” value is given as 90 % inhibition. At OATP1B1, the “Uptake into OATP1B1-HEK 293 cells” value is 87 % of RC1 and the “Inhibition Rifampicine” value was 43 % inhibition.

On to `CCOCCOCCOCCOc1ccc(CC(C(=O)O)N2CCN(CC(=O)[O-])CCN(C(COC)C(=O)[O-])CCN(CC(=O)[O-])CC2)cc1.[Gd+3]` (centres unmarked) [Example 13, gadolinium 2-{7-[1-carboxy-2-(4-{2-[2-(2-ethoxyethoxy)ethoxy]ethoxy}phenyl)ethyl]-4,10-bis(carboxylatomethyl)-1,4,7,10-tetraazacyclododecan-1-yl}-3-methoxypropanoate], for which the “Log P (partition coefficient butanol/buffer)” value in series [1] is on record as −1.53. The same compound returned a Solubility in series [2] of 67 mM. Besides, in series [3], the r1 water is 5.2 L/mmol/s. Further, the r1 human plasma in series [4] was determined as 7.0 L/mmol/s. For the same compound, at OATP1B3, the “Uptake into OATP1B3-HEK 293 cells” value is listed as 31 % of RC1 and the “Inhibition Rifampicine” value came out at 93 % inhibition. Moreover, in series [5], the Uptake rat hepatocytes was 49 % of RC1 and the “Inhibition Rifampicine” value was 86 % inhibition. Also, at OATP1B1, the “Uptake into OATP1B1-HEK 293 cells” value is 109 % of RC1 and the “Inhibition Rifampicine” value is listed as 30 % inhibition.

In the case of `CCCCOc1ccc(CC(C(=O)O)N2CCN(CC(=O)[O-])CCN(CC(=O)[O-])CCN(CC(=O)[O-])CC2)cc1.[Gd+3]` (centres unmarked) [Example 14, gadolinium 2,2′,2″-{10-[2-(4-butoxyphenyl)-1-carboxyethyl]-1,4,7,10-tetraazacyclododecane-1,4,7-triyl}triacetate], the “Log P (partition coefficient butanol/buffer)” value in series [1] is recorded as −0.38. The compound also showed a Solubility in series [2] of 5 mM. In series [3], this compound registered a r1 water of 4.3 L/mmol/s. Moreover, the r1 human plasma in series [4] was 13.3 L/mmol/s. Also, at OATP1B3, the “Uptake into OATP1B3-HEK 293 cells” value is listed as 69 % of RC1 and the “Inhibition Rifampicine” value is on record as 97 % inhibition. Moreover, in series [5], the Uptake rat hepatocytes is given as 96 % of RC1 and the “Inhibition Rifampicine” value was found to be 98 % inhibition. Moreover, on OATP1B1, the “Uptake into OATP1B1-HEK 293 cells” value is given as 856 % of RC1 and the “Inhibition Rifampicine” value is recorded as 98 % inhibition.
